Activity calls are given as the source filed them.
Assays:
[1] = HEp-2 cell cytotoxicity, dose response, cytotoxicity control for RSV inhibitor project, HTS (AID 2410); type: functional; conditions: human respiratory syncytial virus
[2] = target: T1, High affinity choline transporter 1 (Homo sapiens, UniProt Q9GZV3); test: CHT inhibitors, dose response, cell-based, 5-point CRC, membrane potential dye (AID 504840); type: functional
T1 sequence (Q9GZV3 whole entry): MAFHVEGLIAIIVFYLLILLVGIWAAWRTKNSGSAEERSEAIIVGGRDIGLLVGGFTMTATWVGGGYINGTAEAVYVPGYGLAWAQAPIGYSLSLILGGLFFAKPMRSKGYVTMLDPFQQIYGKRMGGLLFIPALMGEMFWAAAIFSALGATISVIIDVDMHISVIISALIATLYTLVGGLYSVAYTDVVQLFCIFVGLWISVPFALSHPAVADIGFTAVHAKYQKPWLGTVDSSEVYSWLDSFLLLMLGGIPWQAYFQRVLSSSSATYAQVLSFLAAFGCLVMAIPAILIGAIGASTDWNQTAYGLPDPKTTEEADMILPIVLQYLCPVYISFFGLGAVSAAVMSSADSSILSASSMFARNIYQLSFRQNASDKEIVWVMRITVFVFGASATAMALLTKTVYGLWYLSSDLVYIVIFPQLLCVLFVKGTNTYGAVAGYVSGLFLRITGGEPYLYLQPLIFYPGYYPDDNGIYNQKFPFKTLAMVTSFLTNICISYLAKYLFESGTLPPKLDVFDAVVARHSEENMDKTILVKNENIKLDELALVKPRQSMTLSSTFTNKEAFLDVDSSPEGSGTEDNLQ

[3] = target: T1, High affinity choline transporter 1; test: CHT inhibitors, dose response, cell-based, 10-point CRC, membrane potential dye (AID 588401); type: functional;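 also: membrane potential dye fluorescence of choline-evoked depolarization via CHT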
Cysteine protease ATG4B = target: T2, Cysteine protease ATG4B (Homo sapiens, UniProt Q9Y4P1); type: functional;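 also: Fluorescence-based dose-response confirmation assay measuring inhibition of ATG4B activity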
T2 sequence (Q9Y4P1 whole entry): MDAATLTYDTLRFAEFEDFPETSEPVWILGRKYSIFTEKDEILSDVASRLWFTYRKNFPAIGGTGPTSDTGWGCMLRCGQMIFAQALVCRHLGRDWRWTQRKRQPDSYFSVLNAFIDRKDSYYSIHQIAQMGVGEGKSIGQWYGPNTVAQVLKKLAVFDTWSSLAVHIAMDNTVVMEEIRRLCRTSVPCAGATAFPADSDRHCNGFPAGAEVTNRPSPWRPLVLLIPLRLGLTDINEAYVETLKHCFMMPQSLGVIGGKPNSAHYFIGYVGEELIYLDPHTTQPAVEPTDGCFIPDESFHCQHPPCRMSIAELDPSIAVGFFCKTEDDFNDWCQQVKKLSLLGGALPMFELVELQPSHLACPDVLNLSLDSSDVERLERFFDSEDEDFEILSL

Phospholipase A2 = Phospholipase A2 (Homo sapiens, UniProt P04054); type: functional;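 also: confirmatory dose-response counterscreen on phospholipase A2, testing hits that came from an ultra-high-throughput screen for ATG4B inhibitors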
Chain of Phospholipase A2 (P04054 whole entry): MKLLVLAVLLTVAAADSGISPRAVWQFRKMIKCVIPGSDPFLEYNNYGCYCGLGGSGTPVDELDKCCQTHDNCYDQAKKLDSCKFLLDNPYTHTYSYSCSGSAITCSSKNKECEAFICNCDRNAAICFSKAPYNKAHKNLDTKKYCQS

[4] = HeLa cell cytotoxicity, dose response, cytotoxicity control for MgcRacGAP inhibitor project (AID 624300); type: functional
[5] = Luminescence Cell-Based Dose Retest to Confirm Inhibitors of Cancer Stem Cells. [Related pubchem assays (depositor defined):AID2717, AID2721]; type: functional; conditions: Homo sapiens
[6] = target: T3, DNA repair and recombination protein RAD54-like (Homo sapiens, UniProt Q92698); test: inhibitors of human RAD54 branch migration, confirmation, biochemical, fluorescence, cherry-picked samples, dose series (AID 651657); type: functional
T3 sequence (Q92698 whole entry): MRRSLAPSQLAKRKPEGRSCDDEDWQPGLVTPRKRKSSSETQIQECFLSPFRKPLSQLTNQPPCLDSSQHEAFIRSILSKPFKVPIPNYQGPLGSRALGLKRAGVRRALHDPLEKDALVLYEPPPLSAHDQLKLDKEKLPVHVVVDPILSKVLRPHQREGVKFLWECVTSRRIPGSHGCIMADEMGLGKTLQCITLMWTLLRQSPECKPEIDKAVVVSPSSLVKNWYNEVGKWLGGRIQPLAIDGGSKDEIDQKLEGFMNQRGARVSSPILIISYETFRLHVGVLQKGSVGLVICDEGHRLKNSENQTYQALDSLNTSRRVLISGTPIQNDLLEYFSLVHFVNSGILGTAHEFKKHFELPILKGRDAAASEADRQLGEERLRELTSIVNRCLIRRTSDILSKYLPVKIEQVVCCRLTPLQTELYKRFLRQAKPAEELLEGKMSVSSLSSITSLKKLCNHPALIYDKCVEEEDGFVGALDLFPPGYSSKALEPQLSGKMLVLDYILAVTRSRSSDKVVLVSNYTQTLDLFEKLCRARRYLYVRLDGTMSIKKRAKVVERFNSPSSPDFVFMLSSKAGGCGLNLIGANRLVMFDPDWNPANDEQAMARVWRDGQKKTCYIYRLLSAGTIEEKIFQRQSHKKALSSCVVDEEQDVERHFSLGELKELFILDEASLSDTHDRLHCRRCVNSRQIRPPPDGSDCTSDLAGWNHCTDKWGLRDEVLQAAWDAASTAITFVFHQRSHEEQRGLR

Interleukin-8 = target: T4, Interleukin-8 (Homo sapiens, UniProt P10145); test: Dose Response confirmation of uHTS small molecule hits for cystic fibrosis induced NFkb Inhibitors in a PAF-induced IL8 counterscreen.; type: functional; conditions: read-out: IC50_Mean
T4 sequence (P10145 whole entry): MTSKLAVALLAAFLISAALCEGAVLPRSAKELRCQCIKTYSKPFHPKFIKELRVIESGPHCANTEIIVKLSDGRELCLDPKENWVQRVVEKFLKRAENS

[7] = target: T5, Zinc finger protein mex-5 (Caenorhabditis elegans, UniProt Q9XUB2); test: MEX-5/TCR-2 RNA interaction inhibitors, dose response, biochemical, C. elegans, fluorescence polarization (AID 1960)
T5 sequence (Q9XUB2 whole entry): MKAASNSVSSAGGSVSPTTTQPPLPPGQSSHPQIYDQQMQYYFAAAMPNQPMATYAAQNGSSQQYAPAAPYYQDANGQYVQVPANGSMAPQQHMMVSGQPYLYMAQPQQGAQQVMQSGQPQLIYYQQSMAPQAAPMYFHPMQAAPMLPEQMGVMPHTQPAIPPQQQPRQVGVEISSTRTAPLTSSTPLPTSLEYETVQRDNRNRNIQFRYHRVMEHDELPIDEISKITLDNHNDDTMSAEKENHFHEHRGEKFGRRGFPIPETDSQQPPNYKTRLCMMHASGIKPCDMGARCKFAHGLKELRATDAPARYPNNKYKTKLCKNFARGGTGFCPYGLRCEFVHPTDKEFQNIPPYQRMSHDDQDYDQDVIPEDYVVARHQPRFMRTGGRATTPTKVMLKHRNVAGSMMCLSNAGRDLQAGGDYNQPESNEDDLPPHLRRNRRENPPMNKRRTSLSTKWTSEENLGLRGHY

[8] = target: T6, RNA-binding protein pos-1 (Caenorhabditis elegans, UniProt G5EF15); test: inhibitors of POS-1/mex-3 RNA binding, dose response, biochemical, fluorescence polarization (AID 1964);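 also: purified POS-1 fused to maltose binding protein made in E. coli; potency of compounds blocking POS-1 binding to fluorescent RNA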
T6 sequence (G5EF15 whole entry): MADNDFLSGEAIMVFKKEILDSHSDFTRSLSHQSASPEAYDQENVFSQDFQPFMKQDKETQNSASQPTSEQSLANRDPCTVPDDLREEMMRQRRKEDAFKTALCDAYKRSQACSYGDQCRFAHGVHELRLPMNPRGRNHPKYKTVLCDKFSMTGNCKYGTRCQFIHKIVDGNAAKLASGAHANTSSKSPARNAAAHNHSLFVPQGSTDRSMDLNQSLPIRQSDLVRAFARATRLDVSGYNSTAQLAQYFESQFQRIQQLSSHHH

[9] = target: T7, Rac GTPase-activating protein 1 (Homo sapiens, UniProt Q9H0H5); test: MgcRacGAP GTPase-activating activity inhibitors, confirmation, biochemical, ADP Hunter fluorescence, primary and confirmatory (AID 624330); type: functional
T7 sequence (Q9H0H5 whole entry): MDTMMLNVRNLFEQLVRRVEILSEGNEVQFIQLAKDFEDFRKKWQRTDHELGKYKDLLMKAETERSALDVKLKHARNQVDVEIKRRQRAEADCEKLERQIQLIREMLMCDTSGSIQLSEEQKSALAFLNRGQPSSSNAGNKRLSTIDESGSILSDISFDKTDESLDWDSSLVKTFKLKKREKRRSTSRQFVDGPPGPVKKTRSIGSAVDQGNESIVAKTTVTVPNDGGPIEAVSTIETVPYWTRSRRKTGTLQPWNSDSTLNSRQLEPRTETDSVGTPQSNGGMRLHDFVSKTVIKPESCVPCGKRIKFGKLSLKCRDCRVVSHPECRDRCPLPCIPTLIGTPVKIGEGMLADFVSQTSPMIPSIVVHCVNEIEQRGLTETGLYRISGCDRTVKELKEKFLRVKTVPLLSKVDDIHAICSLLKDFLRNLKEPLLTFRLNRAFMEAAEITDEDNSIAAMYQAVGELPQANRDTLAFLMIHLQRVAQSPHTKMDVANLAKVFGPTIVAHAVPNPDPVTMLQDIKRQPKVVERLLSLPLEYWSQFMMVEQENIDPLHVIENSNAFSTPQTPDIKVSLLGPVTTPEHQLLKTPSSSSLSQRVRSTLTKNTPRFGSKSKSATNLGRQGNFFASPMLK

Genome polyprotein = Genome polyprotein (dengue virus type 2, UniProt P29990); test: Dengue-2 NS5 methyltransferase inhibitors, primary screen, biochemical, confirmation dose response (AID 588689); type: functional
Chain of Genome polyprotein (P29990 2492-3391 limits assumed): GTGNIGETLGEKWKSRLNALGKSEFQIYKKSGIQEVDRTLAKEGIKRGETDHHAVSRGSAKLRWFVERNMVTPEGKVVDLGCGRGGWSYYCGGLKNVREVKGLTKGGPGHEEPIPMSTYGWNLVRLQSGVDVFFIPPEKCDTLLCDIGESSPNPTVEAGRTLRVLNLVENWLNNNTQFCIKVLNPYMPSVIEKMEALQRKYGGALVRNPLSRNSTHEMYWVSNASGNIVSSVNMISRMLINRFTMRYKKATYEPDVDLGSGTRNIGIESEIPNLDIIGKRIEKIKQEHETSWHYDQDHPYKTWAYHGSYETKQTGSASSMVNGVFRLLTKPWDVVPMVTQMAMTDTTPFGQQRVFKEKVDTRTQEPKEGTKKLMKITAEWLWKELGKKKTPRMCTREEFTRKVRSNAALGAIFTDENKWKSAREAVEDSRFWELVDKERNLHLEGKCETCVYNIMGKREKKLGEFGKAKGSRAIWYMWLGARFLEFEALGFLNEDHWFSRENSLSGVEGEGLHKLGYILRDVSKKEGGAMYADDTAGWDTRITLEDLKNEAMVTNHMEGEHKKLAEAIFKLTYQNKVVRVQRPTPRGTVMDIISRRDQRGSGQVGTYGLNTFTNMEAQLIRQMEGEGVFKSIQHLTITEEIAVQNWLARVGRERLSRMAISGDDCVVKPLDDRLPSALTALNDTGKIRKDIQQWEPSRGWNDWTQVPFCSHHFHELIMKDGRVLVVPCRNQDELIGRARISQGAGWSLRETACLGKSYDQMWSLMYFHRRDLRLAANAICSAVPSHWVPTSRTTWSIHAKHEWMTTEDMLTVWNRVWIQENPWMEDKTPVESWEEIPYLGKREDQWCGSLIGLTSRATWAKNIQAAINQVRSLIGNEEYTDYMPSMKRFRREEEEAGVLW

[10] = miR-122 activators in hepatoma reporter cells, dose response, cell-based, Huh7 psiCHECK-miR122, Renilla luciferase, cherry-picked (AID 651956); type: functional;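 also: huh7 hepatoma cells stably carrying a psiCHECK-2 miR-122 sensor plasmid; renilla luciferase signal reporting endogenous miR-122 activity after 48 h compound exposure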
[11] = Counterscreen for inhibitors of Trypanosoma brucei methionyl tRNA synthetase (MetRS): Luminescence-based cell-based high throughput dose response assay to identify compounds that are cytotoxic to Jurkat human T lymphocyte cells.; type: functional
Paired box protein Pax-8 = Paired box protein Pax-8 (Homo sapiens, UniProt Q06710); test: inhibitors of PAX8-driven TPO luciferase reporter, dose response, RMG-I cells, cherry-pick (AID 687027); type: functional, cell-based;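 also: luciferase reporter driven by Pax8 target thyroperoxidase promoter measured by SteadyGlo luminescence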
Chain of Paired box protein Pax-8 (Q06710 whole entry): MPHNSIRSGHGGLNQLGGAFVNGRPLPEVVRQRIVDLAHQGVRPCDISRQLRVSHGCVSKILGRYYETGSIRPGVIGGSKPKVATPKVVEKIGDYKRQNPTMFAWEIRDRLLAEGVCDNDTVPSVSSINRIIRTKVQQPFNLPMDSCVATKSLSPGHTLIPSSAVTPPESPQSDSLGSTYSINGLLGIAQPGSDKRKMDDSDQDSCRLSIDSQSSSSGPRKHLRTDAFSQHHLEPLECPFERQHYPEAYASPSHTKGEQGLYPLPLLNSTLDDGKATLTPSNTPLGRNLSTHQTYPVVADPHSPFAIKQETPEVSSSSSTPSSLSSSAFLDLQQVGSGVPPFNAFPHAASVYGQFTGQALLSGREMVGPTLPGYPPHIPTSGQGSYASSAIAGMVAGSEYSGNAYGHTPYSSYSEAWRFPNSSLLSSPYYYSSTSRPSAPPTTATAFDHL

[12] = tested on: Streptococcus sp. 'group A'; test: growth inhibition of control SK(-) GAS strain, dose response, counter-screen for streptokinase expression inhibitor project, luminescence, kanamycin, BacTiterGlo, confirmation (AID 1900); type: functional, organism-based
Streptococcus = test: Group A Streptococcus viability loss, dose response, counter-screen for streptokinase expression inhibitor project, luminescence, BacTiterGlo (AID 1915); type: functional, organism-based;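 also: potency for reduction of bacterial viability or growth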
CHO = test: cytotoxicity in TLR9-MyD88 CHO cells, dose response, cytotoxicity control for TLR9-MyD88 binding inhibitor project, cell-based, luminescence (AID 588339); type: functional, hamster; conditions: Cricetulus griseus;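 also: CHO cells stably coexpressing TLR9 and MyD88 fusions from primary screen; compound exposure lasted 48 hours before viability readout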
Beta Lactamase = Beta Lactamase (Pseudomonas aeruginosa, UniProt Q932Y6); test: beta-lactamase reporter inhibitor potency, dose response, artefact control for TLR9-MyD88 binding inhibitor project, BLA reporter cells, FRET fluorescence (AID 588341); type: cell-based;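 also: cell based assay in CHO-K1 cells stably expressing beta-lactamase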
Chain of Beta Lactamase (Q932Y6 whole entry): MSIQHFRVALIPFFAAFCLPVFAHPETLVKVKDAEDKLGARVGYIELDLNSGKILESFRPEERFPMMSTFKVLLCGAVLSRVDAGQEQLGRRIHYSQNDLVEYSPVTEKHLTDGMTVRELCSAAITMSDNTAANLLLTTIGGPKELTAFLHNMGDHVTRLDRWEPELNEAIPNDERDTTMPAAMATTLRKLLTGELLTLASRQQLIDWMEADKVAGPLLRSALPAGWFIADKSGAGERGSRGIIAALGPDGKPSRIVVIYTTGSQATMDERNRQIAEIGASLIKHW

[13] = target: Heat shock protein HSP 90-alpha (Homo sapiens, UniProt P07900); type: functional, organism-based
[14] = HEK293T cytotoxicity, dose response, cytotoxicity control for miR-122 modulator project, cell-based, inhibitor set, cherry-pick, set 2 (AID 720697); type: functional
[15] = target: T8, DNA repair protein RAD52 homolog (Homo sapiens, UniProt P43351); type: functional, biochemical
T8 sequence (P43351 whole entry): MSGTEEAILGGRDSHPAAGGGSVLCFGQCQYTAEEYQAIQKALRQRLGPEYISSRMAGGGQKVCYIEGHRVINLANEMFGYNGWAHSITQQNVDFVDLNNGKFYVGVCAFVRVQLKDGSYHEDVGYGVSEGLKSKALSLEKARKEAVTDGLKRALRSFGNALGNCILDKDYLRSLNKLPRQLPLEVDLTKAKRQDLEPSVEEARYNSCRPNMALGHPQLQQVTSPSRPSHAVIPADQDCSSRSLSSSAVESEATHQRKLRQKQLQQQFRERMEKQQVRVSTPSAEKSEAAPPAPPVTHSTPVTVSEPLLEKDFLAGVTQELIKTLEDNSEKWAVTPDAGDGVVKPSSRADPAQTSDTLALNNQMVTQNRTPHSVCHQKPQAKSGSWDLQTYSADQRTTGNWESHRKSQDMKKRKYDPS

Cc1ccc(-c2csc(NC(=O)c3ccccc3Cl)c2C(=O)O)cc1
CC50 [1]: 19.4 µM (active)
IC50 [2]: 2.27 µM (active)
IC50 [3]: 1.58 µM (active)

O=S(=O)(Nc1nc2ccccc2nc1N1CCc2ccccc2C1)c1ccc(Cl)cc1
IC50 (Cysteine protease ATG4B): 9.18 µM (active)
IC50 (Phospholipase A2): 10 µM (active)

N#C/C(=C/c1ccc(N2CCOCC2)o1)c1ccc(Cl)cc1
CC50 [4]: 100 µM (active)

O=C(Nc1cccc(Cl)c1N1CCCC1)c1cccc(-c2cc3ccccc3oc2=O)c1
AC50 [5]: 0.262 µM (active)
IC50 (Cysteine protease ATG4B): 0.87 µM (active)
IC50 (Phospholipase A2): 0.978 µM (active)

Cc1nccc2c1[nH]c1ccccc12 [HARMAN]
AC50 [6]: 58.4 µM (active)

COc1ccc(CCn2c(=N)c(C(=O)NCCN3CCOCC3)cc3c(=O)n4cccc(C)c4nc32)cc1OC
AC50 [6]: 6.24 µM (active)

Cc1nc(N)c(C#N)c(-c2cccnc2)c1-c1ccccc1
IC50 (Interleukin-8): > 79 µM (inactive)

O=C(O)c1ccccc1-c1ccc(C=C2C(=O)N(c3ccccc3)C(=S)N(c3ccccc3)C2=O)o1
EC50 [7]: > 300 µM (not active)
EC50 [8]: > 300 µM (not active)
IC50 [9]: 105 µM (active)
IC50 (Genome polyprotein): 12.3 µM (active)

C/C=C/c1ccc2c(c1)O[C@H](CN(C)C(=O)Nc1cccc(F)c1)[C@H](C)CN([C@@H](C)CO)S2(=O)=O
AC50 [10]: 31.9 µM (active)

COc1ccc(CC(=O)OCC(=O)Nc2ccc(Br)cc2)cc1
IC50 [11]: 83.3 µM (inactive)

C=CC(=O)/N=c1\sc2ccccc2n1-c1ccccc1
AC50 (Paired box protein Pax-8): 1.6 µM (active)
IC50 [2]: 4.37 µM (active)
IC50 [3]: 1.78 µM (active)

O=C(N/N=C1/CCC/C1=C(/O)C(F)(F)F)c1ccccc1O
EC50 [12]: 1.44 µM (active)
IC50 [2]: 2.27 µM (active)
IC50 [3]: 3.57 µM (active)
EC50 (Streptococcus): 2.75 µM (active)

Cc1cccc(N2C(=O)/C(=C\c3ccc(OC(F)F)cc3)c3ccccc3C2=O)c1
IC50 (CHO): 40.4 µM (inactive)
IC50 (Beta Lactamase): 3.9 µM (active)
AC50 [13]: 4.43 µM (active)

CC(C)c1ccc(CNC(=O)CSCC(=O)Nc2ccc3ccccc3c2)cc1
AC50 [14]: 4.3 µM (active)

CCCCCCCCCCCCCCCC[N+](C)(C)CCl
IC50 (Cysteine protease ATG4B): 8.42 µM (active)
AC50 [15]: 5.5 µM (active)
AC50 [13]: 5.15 µM (active)
IC50 (Phospholipase A2): 8.15 µM (active)

Reference: ChEMBL document CHEMBL1201862, “PubChem BioAssay data set” (2004)
